Measured values published in US20220002373A1, “SINGLE-CHAIN INSULIN ANALOGUES WITH POLY-ALANINE C-DOMAIN SUB-SEGMENTS” (CASE WESTERN RESERVE UNIVERSITY, priority 2018, published 2022).

Tested on: Sprague-Dawley rats made diabetic with streptozotocin
Test: Pharmacodynamics after subcutaneous injection in a rat model of diabetes mellitus (blood-glucose concentration over time)
Assay type: in vivo
Conditions: dose equivalent in nanomoles to 15 μg insulin lispro per 300-gram rat, relative to insulin lispro, FIG. 6
Experimental: The dose was 15 μg of insulin lispro per 300-gram rat; doses of the SCIs were equivalent in units of nanomoles per 300-gram rat (i.e., micrograms corrected for respective molecular masses).

Substance: SCI-4: 57-residue single-chain insulin analogue, C domain EAAAAA, substitutions His^A8, Glu^A14, Asp^B28, Pro^B29; expressed in Pichia pastoris (FVNQHLCGSHLVEALYLVCGERGFFYTDPTEAAAAAGIVEQCCHSICSLEQLENYCN)
- integrated potency (area over the curve): essentially identical to that of insulin lispro
- offset of action / duration of action (tail of insulin action): essentially identical to that of insulin lispro
- onset of action: essentially identical to that of insulin lispro
